# According to patent US20040180888A1 (priority 2001, published 2004):
# Read-outs that look alike come from different tables or passages of the source.
# What was measured:
# HIV-1 = settings: for (Nx) protein binding shift α-GP 1 mg/mL: EC90 with 1 mg/mL glycoprotein versus RPMI; for (Nx) protein binding shift HSA 45 mg/mL: EC90 with 45 mg/mL HSA versus RPMI
# HIV-1 Y181C = test: microbe, parasite or virus in culture; type: cell-based; settings: for Y181C (Nx) resistance shift: EC50 Y181C versus WTIIIB
# mock-infected MT-4 cells = test: Viability of mock-infected MT-4 cells, MTT method; type: cell-based
# HIV-1 K103R = test: microbe, parasite or virus in culture; type: cell-based; settings: for K103R (Nx) resistance shift: EC90 K103R versus WTIIIB
# HIV-1 K103N-Y181C = test: microbe, parasite or virus in culture; type: cell-based; settings: for K103N-Y181C (Nx) resistance shift: EC50 K103N-Y181C versus WTIIIB
# HIV-1 WTIIIB [1] = test: Protection of MT-4 cells from HIV-1-induced cytopathogenicity, MTT method, WTIIIB; type: cell-based
# Source text: Example 26 illustrates the influence of substituents at positions 4, 5, 6, and 7 of the indole ring, in which position 2 of the indole ring is maintained constant, and the substitution at the 3,5-position of the phenyl ring is either hydrogen or held constant with a 3,5-dimethyl substitution. Table 3 presents the influence of these variations on the ability of the compounds to protect cells from HIV-1 induced pathogenecity.
# HIV-1 WTIIIB [2] = test: p24 reduction in virus-infected C8166 cells, WTIIIB; type: cell-based
# [3] = Viability of mock-infected MT-4 cells, MTT method; type: cell-based; settings: human; mock-infected MT-4 cells, MTT
# [4] = read-out: EC90 HSA 45 mg/mL, HIV-1-infected MT-4 cells, RPMI 10% FCS plus 45 mg/mL human serum albumin
# [5] = read-out: EC90 RPMI, reduce p24 by 90% in HIV-1-infected MT-4 cells, RPMI 10% FCS
# [6] = read-out: EC90 α-GP 1 mg/mL, HIV-1-infected MT-4 cells, RPMI 10% FCS plus 1 mg/mL glycoprotein
# [7] = 50% protection of MT-4 cells, MTT, read-out: Y181C EC50
# [8] = reduce p24 by 90% in virus-infected C8166 cells, read-out: K103R EC90
# [9] = 50% protection of MT-4 cells, MTT, read-out: K103N-Y181C EC50
# [10] = reduce p24 by 90% in virus-infected C8166 cells, read-out: WTIIIB EC90
# [11] = Human immunodeficiency virus 1, MT4, read-out: Y181C EC50
# [12] = Human immunodeficiency virus 1, MT4, read-out: K103N-Y181C EC50
# [13] = Human immunodeficiency virus 1, MT4, 50% protection of MT-4 cells
molecule,measurement,setting,value
"Cc1cc(C)cc(S(=O)(=O)c2c(CC(N)=O)[nH]c3c(Cl)cc(Cl)cc23)c1 [compound 10, 5,7-Dichloro-3-(3,5-dimethylphenylsulfonyl)indole-2-carboxyamide]",melting point,,> 300 °C
"5-Chloro-3-(3,5-dimethylphenylsulfonyl)-indole-2-carboxyamide [compound 2]",(Nx) protein binding shift α-GP 1 mg/mL,HIV-1,2 x
same,(Nx) protein binding shift HSA 45 mg/mL,HIV-1,40 x
same,EC90,HIV-1; [4],0.2 µM
same,EC90,HIV-1; [5],0.005 µM
same,EC90,HIV-1; [6],0.01 µM
NC(=O)c1[nH]c2cc(Cl)c(Cl)cc2c1S(=O)(=O)c1ccccc1 [compound 8],EC50,HIV-1 Y181C; [7],2.6 µM
same,Y181C (Nx) resistance shift,HIV-1 Y181C,18 x
same,CC50,mock-infected MT-4 cells,123 µM
same,K103R (Nx) resistance shift,HIV-1 K103R,94 x
same,EC90,HIV-1 K103R; [8],16 µM
same,EC50,HIV-1 K103N-Y181C; [9],> 100 µM
same,K103N-Y181C (Nx) resistance shift,HIV-1 K103N-Y181C,> 714 x
same,EC50,HIV-1 WTIIIB [1]; 50% protection of MT-4 cells,0.14 µM
same,EC90,HIV-1 WTIIIB [2]; [10],0.17 µM
CNNC(=O)c1[nH]c2ccc(Cl)cc2c1S(=O)(=O)c1cc(C)cc(C)c1 [Compd 10],CC50,mock-infected MT-4 cells,> 200 µM
"NC(=O)Cc1[nH]c2ccc(-n3cccc3)cc2c1S(=O)(=O)c1ccccc1 [25a, 5-(1H-Pyrrol-1-yl)-3-(phenylsulfonyl)indole-2-carboxyamide]",melting point,,250 °C
"Cc1cc(C)cc(S(=O)(=O)c2c(CC(N)=O)[nH]c3ccc(F)c(F)c23)c1 [compound 11, 3-(3,5-Dimethylphenylsulfonyl)-4,5-difluoroindole-2-carboxyamide]",melting point,,298 to 300 °C
Cc1cc(C)cc(S(=O)(=O)c2c(C(=O)N3CCN(C)CC3)[nH]c3ccc(Cl)cc23)c1 [Compd 13],CC50,mock-infected MT-4 cells,> 200 µM
"CC(=O)c1ccc2[nH]c(CC(N)=O)c(Sc3cc(C)cc(C)c3)c2c1 [5l, 5-Acetyl-3-(3,5-dimethylphenylthio)indole-2-carboxyamide]",melting point,,> 300 °C
"Cc1cc(C)cc(S(=O)(=O)c2c(CC(N)=O)[nH]c3ccc([N+](=O)[O-])cc23)c1 [5k, 5-Nitro-3-(3,5-dimethylphenylsulfonyl)indole-2-carboxyamide]",melting point,,270 to 272 °C
Cc1cc(C)cc(S(=O)(=O)c2c(C(=O)NNC(C)C)[nH]c3ccc(Cl)cc23)c1 [Compd 11],CC50,mock-infected MT-4 cells,17 µM
"Cc1ccnc2c1NC(=O)c1cccnc1N2C1CC1 [NVP, nevirapine, reference compound]",EC50,HIV-1 Y181C; [11],> 30 µM
same,CC50,[3],200 µM
same,EC50,HIV-1 K103N-Y181C; [12],> 30 µM
same,EC50,HIV-1 WTIIIB [1]; [13],0.37 µM
"O=C1Nc2ccc(Cl)cc2[C@@](C#CC2CC2)(C(F)(F)F)O1 [EFV, efavirenz, reference compound]",EC50,HIV-1 Y181C; [11],0.025 µM
same,CC50,[3],35 µM
same,EC90,"HIV-1 K103R; Human immunodeficiency virus 1, C8166, read-out: K103R EC90",1.8 µM
same,EC50,HIV-1 K103N-Y181C; [12],0.15 µM
same,EC50,HIV-1 WTIIIB [1]; [13],0.004 µM
same,EC90,"HIV-1 WTIIIB [2]; Human immunodeficiency virus 1, C8166, read-out: WTIIIB EC90",0.008 µM
"Cc1cc(C)cc(S(=O)(=O)c2c(CC(N)=O)[nH]c3ccc(Cl)c(F)c23)c1 [5g, 5-Chloro-3-(3,5-dimethylphenylsulfonyl)-4-fluoroindole-2-carboxyamide]",melting point,,268 to 270 °C
"Cc1cc(C)cc(S(=O)(=O)c2c(C(=O)NNCCO)[nH]c3ccc(Cl)cc23)c1 [compound 3, 5-Chloro-3-(3,5-dimethylphenylsulfonyl)indole-2-[N′-(2-hydroxy-ethyl)]-carboxyhydrazide]",(Nx) protein binding shift α-GP 1 mg/mL,HIV-1,7 x
same,(Nx) protein binding shift HSA 45 mg/mL,HIV-1,67 x
same,EC90,HIV-1; [4],0.27 µM
same,EC90,HIV-1; [5],0.004 µM
same,EC90,HIV-1; [6],0.03 µM
"Cc1cc(C)cc(S(=O)(=O)c2c(C(N)=O)[nH]c3cc(F)c(F)cc23)c1 [compound 12, 3-(3,5-Dimethylpbenylsulfonyl)-5,6-difluoroindole-2-carboxyamide]",EC50,HIV-1 Y181C; [7],0.07 µM
same,Y181C (Nx) resistance shift,HIV-1 Y181C,(≧23.3) x
same,EC50,HIV-1 K103N-Y181C; [9],2.6 µM
same,K103N-Y181C (Nx) resistance shift,HIV-1 K103N-Y181C,≥ 866 x
same,EC50,HIV-1 WTIIIB [1]; 50% protection of MT-4 cells,≤ 0.003 µM
"Cc1cc(C)cc(S(=O)(=O)c2c(CC(N)=O)[nH]c3c(F)cc(F)cc23)c1 [compound 13, 3-(3,5-Dimethylphenylsulfonyl)-5,7-difluoroindole-2-carboxyamide]",melting point,,> 300 °C
"Cc1cc(C)cc(S(=O)(=O)c2c(CC(N)=O)[nH]c3cc(Cl)c(F)cc23)c1 [5i, 6-Chloro-3-(3,5-dimethylphenylsulfonyl)-5-fluoroindole-2-carboxyamide]",melting point,,262 to 264 °C
NC(=O)c1[nH]c2ccc(Cl)cc2c1S(=O)(=O)c1ccccc1 [compound 1],(Nx) protein binding shift α-GP 1 mg/mL,HIV-1,2 x
same,(Nx) protein binding shift HSA 45 mg/mL,HIV-1,10 x
same,EC90,HIV-1; [4],0.01 µM
same,EC90,HIV-1; [5],0.001 µM
same,EC90,HIV-1; [6],0.002 µM
"Cc1cc(C)cc(S(=O)(=O)c2c(CC(N)=O)[nH]c3ccc(F)c(Cl)c23)c1 [5h, 4-Chloro-3-(3,5-dimethylphenylsulfonyl)-5-fluoroindole-2-carboxyamide]",melting point,,279 to 280 °C
"Cc1cc(C)cc(S(=O)(=O)c2c(C(=O)NCC(N)=O)[nH]c3ccc(Cl)cc23)c1 [compound 4, 2-[N-[5-Chloro-3-(3,5-dimethylphenylsulfonyl)indol-2-carboxy-amido]]-acetamide]",EC50,HIV-1 Y181C; [7],0.03 µM
same,Y181C (Nx) resistance shift,HIV-1 Y181C,5 x
same,CC50,mock-infected MT-4 cells,30 µM
same,K103R (Nx) resistance shift,HIV-1 K103R,10 x
same,EC90,HIV-1 K103R; [8],0.1 µM
same,EC50,HIV-1 K103N-Y181C; [9],0.8 µM
same,K103N-Y181C (Nx) resistance shift,HIV-1 K103N-Y181C,133 x
same,EC50,HIV-1 WTIIIB [1]; 50% protection of MT-4 cells,0.006 µM
same,(Nx) protein binding shift α-GP 1 mg/mL,HIV-1,3 x
same,(Nx) protein binding shift HSA 45 mg/mL,HIV-1,80 x
same,EC90,HIV-1; [4],4.8 µM
same,EC90,HIV-1; [5],0.06 µM
same,EC90,HIV-1; [6],0.2 µM
same,EC90,HIV-1 WTIIIB [2]; [10],0.01 µM
